# Assay results reported in patent US9365508B2, “Aroyl thiourea derivatives” (University Court of the University of St Andrews, priority 2009, dated 2016).
# Where a name gives a salt, the structure may show the parent alone.
# Key:
# SIRT1 = SIRT1 (Homo sapiens (Human), UniProt Q96EB6); test: SIRT1 inhibition assay (Fluor de Lys fluorescence-based assay kit); type: biochemical; conditions: human recombinant enzyme; for inhibition at 60 µM: read-out: SirT1 (% inhib at 60 μM)
# Experimental: (§1) SIRT1 and SIRT2 Inhibition Assays
# (§2) All compounds were tested for inhibition of SIRT1 and SIRT2 using human recombinant enzymes available in the Fluor de Lys fluorescence-based assay kit (BIOMOL, AK555, AK556). All other required reagents were provided in the kit which was stored at −78° C. Before use, small aliquots of each enzyme (2-3 μL) were prepared, snap frozen in liquid nitrogen and stored at −78° C. Fresh dilutions of compounds were prepared in DMSO and further diluted in assay buffer. NAD^+ (12.5 […] at 4 mM) and Fluor de Lys SIRT1 or SIRT2 (12.5 μL at 100 μM) in assay buffer were added to a white 96 well plate, followed by compound (10 μL) and lastly enzyme (15 μL, 0.07 U/μL or SIRT1 and 0.3 U/μL for SIRT2). After incubation for 1 h at 37° C. a developer solution (50 μL) was added to each reaction. The developer solution contained 38 μL buffer, 10 μL developer and 2 μL nicotinamide (50 mM) per reaction. The plate was then incubated for 45 min at rt and then read using a Spectra Max Gemini fluorimeter with an excitation wavelength of 355 nm and an emission wavelength of 460 nm. SigmaPlot software was used to generate fit curves for raw plots and the equation for each curve was used to calculate IC50 data.
# SIRT2 = SIRT2 (Homo sapiens (Human), UniProt Q8IXJ6); test: SIRT2 inhibition assay (Fluor de Lys fluorescence-based assay kit); type: biochemical; conditions: human recombinant enzyme; for inhibition at 60 µM: read-out: SirT2 (% inhib at 60 μM)
# Chain of SIRT2 (Q8IXJ6 whole entry): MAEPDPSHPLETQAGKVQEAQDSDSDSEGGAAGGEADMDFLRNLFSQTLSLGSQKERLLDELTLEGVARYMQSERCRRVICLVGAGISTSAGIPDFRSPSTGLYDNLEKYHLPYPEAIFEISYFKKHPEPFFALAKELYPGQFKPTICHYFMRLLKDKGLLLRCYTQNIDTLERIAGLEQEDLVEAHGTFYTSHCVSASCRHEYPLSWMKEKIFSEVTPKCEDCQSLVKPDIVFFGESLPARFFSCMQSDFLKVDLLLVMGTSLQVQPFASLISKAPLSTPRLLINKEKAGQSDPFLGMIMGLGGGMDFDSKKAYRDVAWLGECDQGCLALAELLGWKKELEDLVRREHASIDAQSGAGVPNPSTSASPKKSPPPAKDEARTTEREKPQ
# Experimental: as §1, §2
# Chain of SIRT1 (Q96EB6 whole entry): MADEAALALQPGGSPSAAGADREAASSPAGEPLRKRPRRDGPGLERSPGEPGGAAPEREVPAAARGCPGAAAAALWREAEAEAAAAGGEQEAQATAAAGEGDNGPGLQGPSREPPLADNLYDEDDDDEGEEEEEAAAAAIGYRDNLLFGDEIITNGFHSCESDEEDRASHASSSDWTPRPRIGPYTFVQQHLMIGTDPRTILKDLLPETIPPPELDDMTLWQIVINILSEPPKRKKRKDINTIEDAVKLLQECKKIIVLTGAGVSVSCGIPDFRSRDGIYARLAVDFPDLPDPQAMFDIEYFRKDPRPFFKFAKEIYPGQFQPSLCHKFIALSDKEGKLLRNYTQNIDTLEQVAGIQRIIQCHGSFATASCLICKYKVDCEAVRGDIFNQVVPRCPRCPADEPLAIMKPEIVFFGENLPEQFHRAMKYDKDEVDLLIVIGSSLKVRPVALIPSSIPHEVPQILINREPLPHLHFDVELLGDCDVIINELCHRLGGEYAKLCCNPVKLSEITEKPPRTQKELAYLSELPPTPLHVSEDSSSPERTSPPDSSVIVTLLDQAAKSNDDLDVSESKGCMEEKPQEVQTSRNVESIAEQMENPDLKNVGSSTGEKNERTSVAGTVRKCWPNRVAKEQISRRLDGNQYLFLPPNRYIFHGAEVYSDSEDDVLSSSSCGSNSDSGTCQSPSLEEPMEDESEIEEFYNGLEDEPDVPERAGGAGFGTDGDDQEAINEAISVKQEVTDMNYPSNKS
inhibition at 60 µM (SIRT1; 60 μM compound),inhibition at 60 µM (SIRT2; 60 μM compound),IC50 (SIRT1),IC50 (SIRT2),SirT1 (% inhib at 60 μM) (SIRT1; 60 μM compound),SirT2 (% inhib at 60 μM) (SIRT2; 60 μM compound),Compound
48%,51%,,,,,"COc1ccc(C(=O)NC(=S)Nc2ccc(NC(=O)CCCCN(C)C)cc2)cc1 [318a A3, 5-Dimethylamino-pentanoic acid {4-[3-(4-methoxy-benzoyl)-thioureido]-phenyl}-amide hydrochloride]"
55.7%,61.5%,,,,,"CN(C)CCCCC(=O)Nc1ccc(NC(=S)NC(=O)c2ccc(N(C)C)cc2)cc1 [Compound 332a, 5-Dimethylamino-pentanoic acid {4-[3-(4-dimethylamino-benzoyl)-thioureido]-phenyl}-amide hydrochloride]"
13.5%,47.7%,62.1 ± 2.3 µM,39.5 ± 9.7 µM,,,"CN(C)CCCCC(=O)Nc1ccc(NC(=S)NC(=O)c2ccc(Br)cc2)cc1 [Compound B5, 5-Dimethylamino-pentanoic acid {4-[3-(4-bromo-benzoyl)-thioureido]-phenyl}-amide hydrochloride]"
23.3%,49.9%,,,,,"CN(C)CCCCC(=O)Nc1ccc(NC(=S)NC(=O)c2cc(Cl)cc(Cl)c2)cc1 [Compound 360a, 5-Dimethylamino-pentanoic acid {4-[3-(3,5-dichloro-benzoyl)-thioureido]-phenyl}-amide hydrochloride]"
10%,48.5%,> 90 µM,80.7 ± 14.4 µM,,,"Cc1ccccc1C(=O)NC(=S)Nc1ccc(NC(=O)CCCCN(C)C)cc1 [Compound A1, 5-Dimethylamino-pentanoic acid {4-[3-(2-methyl-benzoyl)-thioureido]-phenyl}-amide hydrochloride]"
52.9%,78.4%,64.8 ± 3.8 µM,32.5 ± 0.07 µM,,,"CC(C)c1ccc(C(=O)NC(=S)Nc2ccc(NC(=O)CCCCN(C)C)cc2)cc1 [Compound 331a, 5-Dimethylamino-pentanoic acid {4-[3-(4-isopropyl-benzoyl)-thioureido]-phenyl}-amide hydrochloride]"
47%,40%,,,,,"Cc1ccc(C(=O)NC(=S)Nc2ccc(NC(=O)CCCCN(C)C)cc2)cc1 [318a A2, 5-Dimethylamino-pentanoic acid {4-[3-(4-methyl-benzoyl)-thioureido]-phenyl}-amide hydrochloride]"
48.7%,66.8%,,,,,"COc1ccccc1C(=O)NC(=S)Nc1ccc(NC(=O)CCCCN(C)C)cc1 [Compound A3, 5-Dimethylamino-pentanoic acid {4-[3-(2-methoxy-benzoyl)-thioureido]-phenyl}-amide hydrochloride]"
53%,61%,,,,,"CN(C)CCCCC(=O)Nc1ccc(NC(=S)NC(=O)c2ccc(Cl)cc2)cc1 [318a A1, 5-Dimethylamino-pentanoic acid {4-[3-(4-chloro-benzoyl)-thioureido]-phenyl}-amide hydrochloride]"
,,,,10.9%,17.1%,CN(C)CCCCC(=O)Nc1ccc(NC(=S)NC(=O)c2ccc(C(F)(F)F)cc2)cc1.Cl [Compound B6]
9.1%,57.1%,,,,,"CCc1ccc(C(=O)NC(=S)Nc2ccc(NC(=O)CCCCN(C)C)cc2)cc1 [Compound 345d, 5-Dimethylamino-pentanoic acid {4-[3-(4-ethyl-benzoyl)-thioureido]-phenyl}-amide hydrochloride]"
56.3%,90%,,,,,"CCCCc1ccc(C(=O)NC(=S)Nc2ccc(NC(=O)CCCCN(C)C)cc2)cc1 [Compound 345b, 5-Dimethylamino-pentanoic acid {4-[3-(4-butyl-benzoyl)-thioureido]-phenyl}-amide hydrochloride]"
29.2%,57.9%,,,,,"CN(C)CCCCC(=O)Nc1ccc(NC(=S)NC(=O)c2cccc(Cl)c2)cc1 [Compound A5, 5-Dimethylamino-pentanoic acid {4-[3-(3-chloro-benzoyl)-thioureido]-phenyl}-amide hydrochloride]"
82.4%,89%,,,,,"CCCc1ccc(C(=O)NC(=S)Nc2ccc(NC(=O)CCCCN(C)C)cc2)cc1 [Compound 345c, 5-Dimethylamino-pentanoic acid {4-[3-(4-propyl-benzoyl)-thioureido]-phenyl}-amide hydrochloride]"
8%,68%,70.9 ± 4.2 µM,31.9 ± 6.4 µM,,,"CN(C)CCCCC(=O)Nc1ccc(NC(=S)NC(=O)c2ccc(Cl)c(Cl)c2)cc1 [Compound 311d, 5-Dimethylamino-pentanoic acid {4-[3-(3,4-dichloro-benzoyl)-thioureido]-phenyl}-amide hydrochloride]"
7.5%,46%,> 90 µM,52.5 ± 12.3 µM,,,"CN(C)CCCCC(=O)Nc1ccc(NC(=S)NC(=O)c2cc(F)c(F)c(F)c2)cc1 [Compound D1, 5-Dimethylamino-pentanoic acid {4-[3-(3,4,5-trifluoro-benzoyl)-thioureido]-phenyl}-amide hydrochloride]"
58.3%,29.5%,51.7 ± 6.9 µM,> 90 µM,,,"COc1ccc(C(=O)NC(=S)Nc2ccc(NC(=O)CCCCN(C)C)cc2)cc1C(F)(F)F [Compound C6, 5-Dimethylamino-pentanoic acid {4-[3-(4-methoxy-3-trifluoromethyl-benzoyl)-thioureido]-phenyl}-amide hydrochloride]"
25.3%,30.5%,,,,,"COc1cccc(C(=O)NC(=S)Nc2ccc(NC(=O)CCCCN(C)C)cc2)c1 [Compound B2, 5-Dimethylamino-pentanoic acid {4-[3-(3-methoxy-benzoyl)-thioureido]-phenyl}-amide hydrochloride]"
73%,85.4%,,,,,"CCCCCc1ccc(C(=O)NC(=S)Nc2ccc(NC(=O)CCCCN(C)C)cc2)cc1 [Compound 345a, 5-Dimethylamino-pentanoic acid {4-[3-(4-pentyl-benzoyl)-thioureido]-phenyl}-amide hydrochloride]"
93.5%,91.1%,18.3 ± 0.3 µM,4.6 ± 0.6 µM,,,"CN(C)CCCCC(=O)Nc1ccc(NC(=S)NC(=O)c2ccc(C(C)(C)C)c(Br)c2)cc1 [Compound 361a, 5-Dimethylamino-pentanoic acid {4-[3-(3-bromo-4-tert-butyl-benzoyl)-thioureido]-phenyl}-amide hydrochloride]"
,,47.2 ± 0.9 µM,14 ± 1.7 µM,,,"COc1c(Br)cc(C(=O)NC(=S)Nc2ccc(NC(=O)CCCCN(C)C)cc2)cc1Br [Compound 383a, 5-Dimethylamino-pentanoic acid {4-[3-(3,5-dibromo-4-methoxy-benzoyl)-thioureido]-phenyl}-amide hydrochloride]"
,18%,,,,,"COc1cc(C(=O)NC(=S)Nc2ccc(NC(=O)CCCCN(C)C)cc2)cc(OC)c1OC [Compound D2, 5-Dimethylamino-pentanoic acid {4-[3-(3,4,5-trimethoxy-benzoyl)-thioureido]-phenyl}-amide hydrochloride]"

Compound,inhibition at 60 µM (SIRT1; 60 μM compound),inhibition at 60 µM (SIRT2; 60 μM compound),IC50 (SIRT1),IC50 (SIRT2),SirT1 (% inhib at 60 μM) (SIRT1; 60 μM compound),SirT2 (% inhib at 60 μM) (SIRT2; 60 μM compound)
"CCCCOc1c(Cl)cc(C(=O)NC(=S)Nc2ccc(NC(=O)CCCCN(C)C)cc2)cc1Cl [Compound 392a, 5-Dimethylamino-pentanoic acid {4-[3-(4-butoxy-3,5-dichloro-benzoyl)-thioureido]-phenyl}-amide hydrochloride]",90.4%,96.3%,22.5 ± 1.3 µM,0.4 ± 0.4 µM,,
